This assay has as its target T1, human GlyT1c transporter (Homo sapiens, UniProt P48067).
T1 construct: expressed in transfected cells; host or cells: CHO cells (recombinant; line hGlyT1c_5_CHO is named for the uptake assay)
T1 sequence (P48067 1-706): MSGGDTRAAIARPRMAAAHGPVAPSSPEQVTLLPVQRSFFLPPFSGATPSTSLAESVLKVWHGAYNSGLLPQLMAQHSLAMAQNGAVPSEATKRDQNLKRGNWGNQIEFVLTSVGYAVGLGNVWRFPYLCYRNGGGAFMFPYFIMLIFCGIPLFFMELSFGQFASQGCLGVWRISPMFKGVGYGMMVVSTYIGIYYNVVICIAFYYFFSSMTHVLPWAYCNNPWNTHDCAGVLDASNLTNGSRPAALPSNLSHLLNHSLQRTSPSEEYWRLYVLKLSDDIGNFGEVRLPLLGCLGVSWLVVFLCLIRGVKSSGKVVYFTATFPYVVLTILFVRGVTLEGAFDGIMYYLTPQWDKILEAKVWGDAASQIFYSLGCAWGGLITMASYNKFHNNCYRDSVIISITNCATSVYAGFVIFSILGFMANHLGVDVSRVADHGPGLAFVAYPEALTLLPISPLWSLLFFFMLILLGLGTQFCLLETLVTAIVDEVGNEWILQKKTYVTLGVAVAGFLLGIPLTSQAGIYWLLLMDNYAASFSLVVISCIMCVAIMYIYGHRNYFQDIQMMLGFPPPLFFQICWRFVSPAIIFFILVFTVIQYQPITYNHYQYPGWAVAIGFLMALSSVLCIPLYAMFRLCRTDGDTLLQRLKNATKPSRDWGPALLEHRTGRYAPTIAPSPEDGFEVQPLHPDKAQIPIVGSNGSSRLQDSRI
Put plainly: Radioligand binding assay using recombinant CHO cell membranes expressing human GlyT1. The text has this: 2. Radioligand binding assays using recombinant CHO cell membranes expressing human GlyT1: […]

Where [1] appears, read: radioligand binding to human GlyT1c transporter-expressing membranes.

Bounds are passed on as bounds.

In the case of `Cc1cccc(N[C@@H]2CN(S(=O)(=O)c3cn(C)cn3)C[C@H]2C2CCOC2)c1` (relative stereo) [Example 828, trans-1-[(1-methyl-1H-imidazol-4-yl)sulfonyl]-N-(3-methylphenyl)-4-(tetrahydrofuran-3-yl)pyrrolidin-3-amine], where the note is “radioligand binding, recombinant CHO cell membranes expressing human GlyT1c”, the Ki was not above 10000 nM.

Turning to `Cn1cnc(S(=O)(=O)N2C[C@@H](Nc3cncc(F)c3)[C@H](c3ccccc3)C2)c1` (relative stereo) [Example 237, 5-fluoro-N-{trans-1-[(1-methyl-1H-imidazol-4-yl)sulfonyl]-4-phenylpyrrolidin-3-yl}pyridin-3-amine], the Ki under setting [1] was not above 10000 nM.

For the compound `CC(C)(C)OC(=O)N[C@@H]1CN(S(=O)(=O)c2ccccc2C#N)C[C@H]1c1ccccc1` (relative stereo) [Example 523, tert-butyl {trans-1-[(2-cyanophenyl)sulfonyl]-4-phenylpyrrolidin-3-yl}carbamate], the Ki under setting [1] was not above 10000 nM.

With `Cc1cccc(C(=O)[C@@H]2CN(S(=O)(=O)c3cn(C)cn3)C[C@H]2c2ccc(F)cc2)c1` (relative stereo) [Example 300, {trans-4-(4-fluorophenyl)-1-[(1-methyl-1H-imidazol-4-yl)sulfonyl]pyrrolidin-3-yl}(3-methylphenyl)methanone], the Ki under setting [1] was not above 1000 nM.

`Cc1cc(N[C@H]2CN(S(=O)(=O)c3cn(C)cn3)C[C@@H]2c2ccc(F)cc2)ccc1Cl` [Example 743, (3R,4S)-N-(4-chloro-3-methylphenyl)-4-(4-fluorophenyl)-1-[(1-methyl-1H-imidazol-4-yl)sulfonyl]pyrrolidin-3-amine]: under setting [1], the Ki is not above 100 nM.

Turning to `Cn1cnc(S(=O)(=O)N2C[C@H](Nc3cccc4c3CNC4=O)[C@@H](c3ccccc3)C2)c1` [Example 421, 4-({(3R,4S)-1-[(1-methyl-1H-imidazol-4-yl)sulfonyl]-4-phenylpyrrolidin-3-yl}amino)-2,3-dihydro-1H-isoindol-1-one], under setting [1], the Ki was not above 10000 nM.

Turning to `Cn1cnc(S(=O)(=O)N2C[C@@H](COc3cccc(Cl)c3)[C@H](c3ccc(F)cc3)C2)c1` (relative stereo) [Example 248, 4-{[trans-3-[(3-chlorophenoxy)methyl]-4-(4-fluorophenyl)pyrrolidin-1-yl]sulfonyl}-1-methyl-1H-imidazole], under setting [1], the Ki was not above 1000 nM.

As to `Cn1cnc(S(=O)(=O)N2C[C@@H](Nc3cccc(Cl)c3)[C@H](c3ccccc3Cl)C2)c1` (relative stereo) [Example 278, trans-4-(2-chlorophenyl)-N-(3-chlorophenyl)-1-[(1-methyl-1H-imidazol-4-yl)sulfonyl]pyrrolidin-3-amine], the Ki under setting [1] is not above 100 nM.

In the case of `Cn1cnc(S(=O)(=O)N2C[C@@H](NCc3ccccn3)[C@H](c3ccc(F)cc3)C2)c1` (relative stereo) [Example 268, trans-4-(4-fluorophenyl)-1-[(1-methyl-1H-imidazol-4-yl)sulfonyl]-N-(pyridin-2-ylmethyl)pyrrolidin-3-amine], the Ki under setting [1] was not above 10000 nM.

As for `Cn1cnc(S(=O)(=O)N2C[C@@H](Nc3cccc(F)c3)[C@H](c3ccccc3F)C2)c1` (relative stereo) [Example 199, trans-4-(2-fluorophenyl)-N-(3-fluorophenyl)-1-[(1-methyl-1H-imidazol-4-yl)sulfonyl]pyrrolidin-3-amine], the Ki under setting [1] is not above 1000 nM.

Consider `Cn1cnc(S(=O)(=O)N2C[C@@H](Nc3cccc(OCC(F)(F)F)c3)[C@H](c3ncccc3F)C2)c1` (relative stereo) [Example 800, Trans-4-(3-fluoropyridin-2-yl)-1-[(1-methyl-1H-imidazol-4-yl)sulfonyl]-N-[3-(2,2,2-trifluoroethoxy)phenyl]pyrrolidin-3-amine], for which the inhibition constant Ki under setting [1] is not above 10 nM.

Regarding `Cn1cnc(S(=O)(=O)N2C[C@@H](Nc3cccc(F)c3F)[C@H](c3ccccc3)C2)c1` (relative stereo) [Example 231, trans-N-(2,3-difluorophenyl)-1-[(1-methyl-1H-imidazol-4-yl)sulfonyl]-4-phenylpyrrolidin-3-amine], the inhibition constant (Ki) under setting [1] was not above 1000 nM.

One may read the Ki as a measure of affinity in units of concentration, obtained from inhibition or displacement.
